Results from ChEMBL document CHEMBL1158015, “New steroid glycosides from the deep-water starfish Mediaster murrayi” (J Nat Prod, 1999).

Tests used:
[1] = Toxicity in mouse erythrocytes assessed as hemolysis; assay type: cell-based, Erythrocyte; details: read-out: ED50 (the source's name)
[2] = Inhibition of cell division of sea urchin fertilized eggs at 25 uM; assay type: functional; details: Strongylocentrotus intermedius, Egg
[3] = Inhibition of cell division of sea urchin fertilized eggs at 100 uM; assay type: functional; details: Strongylocentrotus intermedius, Egg

SMILES | HC50 [1] | inhibition at 25 µM [2] | inhibition at 100 µM [3]
CO[C@H]1[C@H](OC[C@@H]2O[C@@H](O[C@@H](CC[C@@H](C)[C@H]3C[C@@H](O)[C@@H]4[C@]3(C)CC[C@H]3[C@@]4(O)C[C@H](O)C4C[C@@H](O)CC[C@@]43C)C(C)C)[C@H](O)[C@H]2O)OC[C@@H](O)[C@@H]1O (some centres undefined) [MEDIASTEROSIDE M1] | 66 µM | 100% | 
CC(C)[C@H](CC[C@@H](C)[C@H]1C[C@@H](O)[C@@H]2[C@]1(C)CC[C@H]1[C@@]2(O)C[C@H](O)C2C[C@@H](O)CC[C@@]21C)O[C@@H]1O[C@@H](CO[C@@H]2OC[C@@H](O)[C@H](O)[C@H]2O)[C@H](O)[C@H]1O (some centres undefined) [MEDIASTEROSIDE M2] | 35 µM |  | 100%
